Patent US9115122B2, “Non-ATP dependent inhibitors of extracellular signal-regulated kinase (ERK)” (UNIVERSITY OF MARYLAND, BALTIMORE, priority 2012, dated 2015)

Columns and labels:
Test in all cases: Cell proliferation WST-1 assay, single dose (Example 4)
Type in all cases: cell-based
Conditions in all cases: 100 μM, 48 hours
HL-60 leukemic cells = test system: HL-60 leukemic cells
Protocol: (§1) In addition, compounds were tested in RPMI-7951 cells, which also contain mutated BRaf and are resistant to BRaf inhibitors due to the overexpression of MAP3K8 (the gene encoding COT/Tp12) that provides an alternative mechanism to indirectly or directly activate ERK proteins. […] For comparison, HeLa cervical carcinoma and Jurkat T-cell leukemia cells, which are p53 defective cancer cell lines but contain no known activating mutations in the ERK pathway, were studied. […] Cell proliferation was evaluated by water soluble tetrazolium-1 (WST-1) assay as previously described. Briefly, cells (˜5000/well) were seeded in 96 well plates, allowed to recover for 16-20 hours, and then treated with the indicated test compound for 48 hours. After incubation, WST-1 reagent was added and absorbance was read at 450 nm with background subtraction taken at 650 nm. Values were normalized to the control (DMSO only treated) cells.

[1] = test system: HeLa cervical carcinoma cells
Protocol: as §1

SK-MEL-28 melanoma cells = test system: SK-MEL-28 melanoma cells
Protocol: as §1

[2] = test system: Jurkat T-cell leukemia cells
Protocol: as §1

A375 melanoma cells = test system: A375 melanoma cells
Protocol: as §1

RPMI-7951 melanoma cells = test system: RPMI-7951 melanoma cells
Protocol: as §1

SMILES | Cell Viability (% of Vehicle) HL-60 (HL-60 leukemic cells) | Cell Viability (% of Vehicle) HeLa [1] | Cell Viability (% of Vehicle) SK-MEL-28 (SK-MEL-28 melanoma cells) | Cell Viability (% of Vehicle) Jurkat [2] | Cell Viability (% of Vehicle) A375 (A375 melanoma cells) | Cell Viability (% of Vehicle) RPMI-7951 (RPMI-7951 melanoma cells)
CCOc1ccc(/C=C2\SC(=O)NC2=O)cc1 [Compound 2, (Z)-5-(4-ethoxybenzylidene)thiazolidine-2,4-dione] | 103 ± 16 % of Vehicle | 98 ± 13 % of Vehicle | 103 ± 1 % of Vehicle | 104 ± 4 % of Vehicle | 110 ± 10 % of Vehicle | 144 ± 2 % of Vehicle
CCOc1ccc(CC2SC(=O)N(CCN)C2=O)cc1 (stereo not drawn) [Compound 6, 3-(2-aminoethyl)-5-(4-ethoxybenzyl)thiazolidine-2,4-dione] | 41 ± 17 % of Vehicle | 90 ± 4 % of Vehicle | 88 ± 3 % of Vehicle | 108 ± 10 % of Vehicle | 92 ± 6 % of Vehicle | 70 ± 5 % of Vehicle
CCOc1ccc(/C=C2\SC(=S)N(CCN)C2=O)cc1 [Compound 9, (Z)-3-(2-aminoethyl)-5-(4-ethoxybenzylidene)-2-thioxothiazolidin-4-one] | 7.9 ± 3 % of Vehicle | 26 ± 6 % of Vehicle | 45 ± 7 % of Vehicle | 52 ± 4 % of Vehicle | 21 ± 10 % of Vehicle | 3.3 ± 2 % of Vehicle
CCOc1ccc(/C=C2\CC(=O)N(CCN)C2=O)cc1 [Compound 13, (E)-1-(2-aminoethyl)-3-(4-ethoxybenzylidene)pyrrolidine-2,5-dione] | 58 ± 28 % of Vehicle | 75 ± 2 % of Vehicle | 65 ± 4 % of Vehicle | 100 ± 10 % of Vehicle | 29 ± 3 % of Vehicle | 19 ± 5 % of Vehicle
CCOc1ccc(/C=C2\CCN(CCN)C2=O)cc1 [Compound 17, (E)-1-(2-aminoethyl)-3-(4-ethoxybenzylidene)pyrrolidin-2-one] | 73 ± 9 % of Vehicle | 89 ± 4 % of Vehicle | 79 ± 6 % of Vehicle | 92 ± 2 % of Vehicle | 95 ± 2 % of Vehicle | 96 ± 3 % of Vehicle
CCOc1ccc(/C=C/C(=O)NCCN)cc1 [Compound 20, (E)-N-(2-aminoethyl)-3-(4-ethoxyphenyl)acrylamide] | 59 ± 25 % of Vehicle | 94 ± 5 % of Vehicle | 83 ± 4 % of Vehicle | 89 ± 7 % of Vehicle | 81 ± 5 % of Vehicle | 93 ± 9 % of Vehicle
CCOc1ccc(/C=C2\SC(=O)N(CC(C)N)C2=O)cc1 (stereo not drawn) [Compound 22b, (Z)-3-(2-aminopropyl)-5-(4-ethoxybenzylidene)thiazolidine-2,4-dione] | 7.3 ± 3 % of Vehicle | 49 ± 7 % of Vehicle | 32 ± 4 % of Vehicle | 58 ± 10 % of Vehicle | 25 ± 4 % of Vehicle | 16 ± 1 % of Vehicle
CCOc1ccc(/C=C2\SC(=O)N(C(C)CN)C2=O)cc1 (stereo not drawn) [Compound 22c, (Z)-3-(1-aminopropan-2-yl)-5-(4-ethoxybenzylidene)thiazolidine-2,4-dione] | 8.1 ± 3 % of Vehicle | 45 ± 7 % of Vehicle | 28 ± 4 % of Vehicle | 54 ± 10 % of Vehicle | 13 ± 2 % of Vehicle | 22 ± 3 % of Vehicle
